System: human pancreatic lipase
Assay: lipase activity measured in control, normal and heparin-administered samples with each reagent (1,2-dioleoyl glycerol, UV method; Liquitech Lipase Color II for verification)
Type: biochemical
Set-up: lipase activity relative to (1) comparative example NaDCA (Table 1): concentration or dose not given beside the values
Details: for lipase activity (Table 1): NaDCA pH 8.15, other bile salts pH 7.0; for lipase activity (Table 2): comparative example pH 8.15, present example pH 7.1, bile acid 40 mmol/L in R-1
Method: A mixture of the substrate stock solution and the R-1 in a proportion of 1:2 was used as a first reagent. The R-2 was directly used as a second reagent. As a sample, pooled serum or a control sample (a control containing a pancreatic lipase) was used. A proportion in amount among the sample, the first reagent and the second reagent was set as sample:first reagent:second reagent of 0.01 ml:0.18 ml:0.06 ml. The sample was added to the first reagent, the resultant mixture was heated at 37° C. for 5 minutes, the second reagent was added thereto, and a change rate of an absorbance at 340 nm based on reduced NADP was obtained at 37° C. from 3 minutes after the addition of the second reagent to 4 minutes after the addition, and then, the lipase activity was calculated by using a molecular extinction coefficient of 6300 L/mol·cm of the reduced NADP. Besides, as a sample blank, saline was used instead of a sample, an absorbance was measured by using the reagent for sample blank obtained by removing MGLPII from the second reagent, and a difference between the thus measured two values was defined as an enzyme activity value. For the measurement, Hitachi automatic analyzer Model H7170 or H7080 was used.
Similarly to Example 1, a mixture of the substrate stock solution and the R-1 in a proportion of 1:2 was used as a first reagent. Except for this, the measurement was performed in the same manner as in Example 1.
A commercially available reagent for a resorufin colorimetric method, “Liquitech Lipase Color II” manufactured by Roche Diagnostics using 1,2-O-dilauryl-rac-glycerol-3-glutaric acid-(6-methylresorufin)ester (DGGR), which is regarded not to be influenced by a non-pancreatic lipase, such as a lipoprotein lipase or a hepatic lipase, appearing in blood due to administration of heparin, was used for verifying the effect of the present example. “Liquitech Lipase Color II” was used in accordance with the package insert, and a special calibrator was used for calculating the enzyme activity. […] The concentration of each bile acid used in the present example was set to be the same as that in the comparative example.
As samples, a control, non-heparin-administered samples (normal samples), and heparin-administered samples were used.
The compositions of the reagents were the same as those of Example 2. As a comparative example, NaDCA (in a concentration of 40 mmol/L in the R-1) was used as the bile acid, and the reaction solution was adjusted to pH 8.15 (by the Bicine buffer) for measuring a heparin-administered sample.
It is noted that CRM-001b containing a human pancreatic recombinant lipase dissolved not in distilled water but in a pooled serum was used as the calibrator to calculate the lipase activity.
As a bile acid of the present example and a reference example, NaTDCA was selected, and the pH dependence with the pH of a reaction solution changed in a range of 6.2 to 7.6 was examined. It is noted that a case of pH 7.6 was used as the reference example. An MES buffer was used for adjusting pH to 6.2 and 6.4, and the BES buffer was used for adjusting the other pHs. As samples, (six) control samples (controls each containing a pancreatic lipase) and (nine) heparin-administered samples were used. As a comparative example, NaDCA (in a concentration of 40 mmol/L in the R-1) was used as the bile acid, and a reaction solution having pH 8.15 (the Bicine buffer) was used. Besides, “Liquitech Lipase Color II” manufactured by Roche Diagnostics was used for verifying the effect of the present example.

SMILES: C[C@H](CCC(=O)NCC(=O)[O-])[C@H]1CC[C@H]2[C@@H]3[C@H](O)C[C@@H]4C[C@H](O)CC[C@]4(C)[C@H]3CC[C@]12C.[Na+] [NaGCDCA, sodium glycochenodeoxycholate]
- sensitivity at pH 7.95 compared with pH 7.0 (NaGCDCA 40 mmol/L in R-1): about 40%
- lipase activity (Table 1) (Normal sample 1): 38.1 U/L
- lipase activity relative to (1) comparative example NaDCA (Table 1) (Normal sample 1, pH 7.0): 97.5%
- lipase activity (Table 1) (Normal sample 2): 75.6 U/L
- lipase activity relative to (1) comparative example NaDCA (Table 1) (Normal sample 2, pH 7.0): 79.5%
- lipase activity (Table 1) (Normal sample 3): 41.2 U/L
- lipase activity relative to (1) comparative example NaDCA (Table 1) (Normal sample 3, pH 7.0): 88.4%
- lipase activity (Table 1) (Normal sample 4): 31.7 U/L
- lipase activity relative to (1) comparative example NaDCA (Table 1) (Normal sample 4, pH 7.0): 73.0%
- lipase activity (Table 1) (Normal sample 5): 28.8 U/L
- lipase activity relative to (1) comparative example NaDCA (Table 1) (Normal sample 5, pH 7.0): 70.8%
- lipase activity (Table 1) (sample Heparin 1): 30.8 U/L
- lipase activity (Table 2) (sample Heparin 1): 47.8 U/L
- lipase activity relative to (1) comparative example NaDCA (Table 1) (sample Heparin 1, pH 7.0): 40.1%
- lipase activity (Table 1) (sample Heparin 2): 41.3 U/L
- lipase activity (Table 2) (sample Heparin 2): 25.9 U/L
- lipase activity relative to (1) comparative example NaDCA (Table 1) (sample Heparin 2, pH 7.0): 47.6%
- lipase activity (Table 1) (sample Heparin 3): 29.8 U/L
- lipase activity (Table 2) (sample Heparin 3): 44.0 U/L
- lipase activity relative to (1) comparative example NaDCA (Table 1) (sample Heparin 3, pH 7.0): 26.4%
- lipase activity (Table 1) (sample Heparin 4): 31.6 U/L
- lipase activity relative to (1) comparative example NaDCA (Table 1) (sample Heparin 4, pH 7.0): 31.2%
- lipase activity (Table 1) (sample Heparin 5): 17.8 U/L
- lipase activity relative to (1) comparative example NaDCA (Table 1) (sample Heparin 5, pH 7.0): 26.0%
- lipase activity (Table 1) (sample Heparin 6): 22.5 U/L
- lipase activity relative to (1) comparative example NaDCA (Table 1) (sample Heparin 6, pH 7.0): 32.5%
- lipase activity (Table 1) (sample Heparin 7): 51.0 U/L
- lipase activity relative to (1) comparative example NaDCA (Table 1) (sample Heparin 7, pH 7.0): 36.9%
- lipase activity (Table 1) (sample Heparin 8): 36.6 U/L
- lipase activity relative to (1) comparative example NaDCA (Table 1) (sample Heparin 8, pH 7.0): 29.0%
- lipase activity (Table 1) (sample Heparin 9): 75.4 U/L
- lipase activity relative to (1) comparative example NaDCA (Table 1) (sample Heparin 9, pH 7.0): 44.7%
- lipase activity (Table 5) (sample Heparin 31, pH 7.0): 40.7 U/L
- lipase activity (Table 5) (sample Heparin 31, pH 7.95): 60.7 U/L
- lipase activity (Table 5) (sample Heparin 32, pH 7.0): 32.7 U/L
- lipase activity (Table 5) (sample Heparin 32, pH 7.95): 77.0 U/L
- lipase activity (Table 1) (sample PRECINORM): 42.3 U/L
- lipase activity (Table 5) (sample PRECINORM, pH 7.0): 42.3 U/L
- lipase activity relative to (1) comparative example NaDCA (Table 1) (sample PRECINORM, pH 7.0): 82.9%
- lipase activity (Table 5) (sample PRECINORM, pH 7.95): 24.0 U/L
- lipase activity (Table 1) (sample PRECIPATH): 109.9 U/L
- lipase activity (Table 5) (sample PRECIPATH, pH 7.0): 109.9 U/L
- lipase activity relative to (1) comparative example NaDCA (Table 1) (sample PRECIPATH, pH 7.0): 85.9%
- lipase activity (Table 5) (sample PRECIPATH, pH 7.95): 57.3 U/L
- lipase activity (Table 5) (sample Pool 1, pH 7.0): 36.9 U/L
- lipase activity (Table 5) (sample Pool 1, pH 7.95): 19.4 U/L
- lipase activity (Table 5) (sample Pool 2, pH 7.0): 17.5 U/L
- lipase activity (Table 5) (sample Pool 2, pH 7.95): 15.4 U/L
- lipase activity (Table 5) (sample Seraclear LP, pH 7.0): 17.5 U/L
- lipase activity (Table 5) (sample Seraclear LP, pH 7.95): 7.5 U/L
